According to US8222483B2, “Cytokinin oxidase sequences and methods of use” (Pioneer Hi Bred International Inc, priority 2004, dated 2012):

Tested on: ZmCkx2
Assay: ZmCkx2 expression in leaf discs incubated with benzyladenine (Northern and Lynx analyses)
Type: cell-based, maize
Conditions: leaf discs incubated with 10 μM benzyladenine
Procedure: Northern analysis of ZmCkx2 was performed using ExpressHyb™ Hybridization Solution from BD Biosciences Clontech (Palo Alto, Calif.) with a final wash in 0.1×SSC, 0.1% SDS at 65° C. for 20 minutes.
A tight relationship exists between Lynx and Northern data for ZmCkx2. This provided confidence when the Lynx database was mined for ZmCkx2 expression in various plant parts. […] Similarly, Northern data indicated strongest signals from ear leaf and midrib tissues; intermediate levels in tassel, husk leaves, young leaves, stalk, and pulvini; and lower levels in cob and ovary tissue. Little to no ZmCkx2 activity was detected by Northern analysis of roots or silks.

Compound: c1ccc(CNc2ncnc3nc[nH]c23)cc1 [benzyladenine]
- increase in ZmCkx2 expression: 2 fold
